The text below walks through data of patent US11179408B2, “Use of cyanoglucosides and pharmaceutical formulations thereof in the treatment of diabetes” (UNIVERSIDADE ESTADUAL PAULISTA JULIO DE MESQUITA FILHO, priority 2016, dated 2021).

Test [1] concerns diabetic mice. The experiment in a line: Fasting blood glucose in streptozotocin diabetic mice. The test is classed as in vivo, Male Swiss mice. The note with it: for fasting blood glucose: streptozotocin diabetic mice, end of treatment, p<0.05. The procedure: The hydroalcoholic extract as obtained in Example 1 and the major compound lithospermoside (BH-21) as obtained in Example 2 were evaluated for their pharmacological activity in reducing fasting blood glucose and improving glucose tolerance in diabetic animals as described below.
(§1) The major compound of the cyanoglicoside fraction, BH-21 was tested at a concentration of 10 mg/kg in diabetic mice by gavage daily for 28 days. Male Swiss mice were divided into two groups and treated daily for 28 days by gavage: a control group (CTLSAL) that received saline vehicle (0.9% NaCl) and a group called streptozotocin, previously treated with this drug (150 mg/kg). Animals with blood glucose higher than 250 mg/dl were included in the study and divided into three experimental groups. One group, named streptozotocin saline (STZSAL) received saline (0.9% NaCl); another group of animals treated with metformin (STZMET) at the dose of 300 mg/kg and a third group (LITHOS) received the compound BH-21 (lithospermoside), diluted in saline at a dose of 10 mg/kg body weight.

In test [2] the test system is diabetic mice. As to the kind of experiment: Intraperitoneal glucose tolerance test (IPGTT) in diabetic mice. The test is classed as in vivo. The following applies: streptozotocin diabetic mice; for IPGTT area under the curve (AUC): compared to CTLSAL group. The procedure: The leaves extract obtained under Example 1 was tested at a concentration of 400 mg/kg. The mice were treated daily for days by gavage with the extract as well as metformin (300 mg/kg), and at the end of treatment they underwent an […] glucose tolerance test.
The intraperitoneal glucose tolerance assay (IPGTT) was used to evaluate the glucose disappearance from the plasma of 8-10 hours fasted mice at time 0 and after glucose intraperitoneal injection (2 g/kg) in 15, 30, 60, 90 and 120 min as represented on FIG. 2A where curves represent: CTLSAL: normoglycemic mice treated orally with saline vehicle (0.9% NaCl), STZSAL: diabetic mice treated orally with saline vehicle (0.9% NaCl), STZMET: diabetic mice treated orally with metformin at the concentration of 300 mg/kg, STZEXT: diabetic mice treated orally with 70% EtOH extract at a concentration of 400 mg/kg. […] Data expressed as mean±standard error of the mean. ANOVA followed by Tukey post test. a vs. CTLSAL, b vs. STZSAL, c vs. STZMET, N=8-12, p<0.05.
as §1

For test [3], the system named is normal rats. The note with it: oral, 200 mg/kg, 1 h after treatment; cited from earlier work.
Test [4] concerns alloxan-induced diabetic rats. The following applies: oral, 50, 100 and 200 mg/kg; cited from earlier work.
Setting [5] is: 10 mg/kg by gavage daily for 28 days.

For the compound `N#C/C=C1/C=C[C@@H](O)[C@H](O)[C@H]1OC1OC(CO)C(O)C(O)C1O` (stereo in doubt) [BH-21, (2Z)-2-[(4R,5S,6S)-4,5-dihydroxy-6-[[(2S,3S,4R,5R,6S)-3,4,5-trihydroxy-6-(hydroxymethyl)-2-oxanyl]oxy]-1-cyclohex-2-enylidene]acetonitrile], the “in vivo hypoglycemic activity relative to metformin” value in test [1] (higher than metformin) is “about 30 times”. The fasting blood glucose result in test [1] (setting [5]) is “significantly lower than in STZSAL and STZMET groups but greater than the CTLSAL group”. The “IPGTT area under the curve (AUC)” value in test [2] (setting [5]) was “no significant difference”. Further, in test [2] (10 mg/kg daily for 28 days, vs metformin 300 mg/kg group, p<0.05), the “IPGTT blood glucose values after intraperitoneal administration of glucose” value is “significantly lower than the STZMET group at all times”.
Take `CN(C)C(=N)N=C(N)N` [metformin]: in test [1] (metformin 300 mg/kg daily for 28 days, vs CTLSAL), the fasting blood glucose result is reported as “significantly increased”. For the same compound, the “IPGTT area under the curve (AUC)” value in test [2] (metformin 300 mg/kg daily for 28 days) was “no significant difference”.
On to `C[C@@H]1O[C@@H](Oc2cc(O)c3c(=O)c(O[C@@H]4O[C@@H](C)[C@H](O)[C@@H](O)[C@H]4O)c(-c4ccc(O)cc4)oc3c2)[C@H](O)[C@H](O)[C@H]1O` [kaempferitrin, kaempferol-3,7-O—(R)-dirhamnoside], for which the blood glucose lowering result in test [3] is on record as “blood glucose lowering was observed only with the higher dose”. The hypoglycemic effect result in test [4] is reported as “evident at all doses tested”.
